Test results: ChEMBL document CHEMBL5532661, “Discovery of a Novel Glucagon-like Peptide-1 (GLP-1) Analogue from Bullfrog and Investigation of Its Potential for Designing GLP-1-Based Multiagonists” (J Med Chem, 2024)
Active and inactive are the calls of the source. No cut-off for these calls is given here. Numbered stars: 1 amine (or outer) side, 2 acyl side, 3 side chain; on linkers, the order of the positions; unused ones are H or OH. Square brackets hold non-standard residues; d marks the D form. Side chains are listed from the residue outwards. Peptide text beside a SMILES is read from it. * marks the point of attachment. C18 diacid = O=C(O)CCCCCCCCCCCCCCCCC(=O)*; γGlu = O=C(O)[C@H](CCC(=O)[*:2])N[*:1]; AEEA = NCCOCCOCC(=O)O; Aib = CC(C)(N)C(=O)O

What was measured:
Mus musculus [1] = test: Anorexigenic effect in ICR mouse assessed as decrease in food intake at 30 nmol/kg, sc measured upto 72 hrs by acute food intake study; assay type: functional, organism-based
[2] = target: T1, Glucagon-like peptide 1 receptor (Homo sapiens, UniProt P43220); test: Agonist activity at human GLP-1 receptor expressed in HEK293 cells assessed as cAMP level measured after 60 mins by HTRF based assay; assay type: functional, cell-based
Mus musculus [3] = test: Antihyperglycemic effect in DIO mouse assessed as antihyperglycemic duration by measuring blood glucose at 30 nmol/kg, sc administered twice daily measured by hypoglycemic duration assay; assay type: functional, organism-based
Mus musculus [4] = test: Hypoglycemic effect in ICR mouse treated with 3 g/kg glucose assessed as reduction in blood glucose level at 100 nmol/kg, sc measured upto 120 mins by acute glucose lowering test; assay type: functional, organism-based
Mus musculus [5] = test: Reduction in blood glucose level in non-fasting DIO mouse at 30 nmol/kg, sc treated every 2 and half day once measured after 21 days by glucose tolerance test; assay type: functional, organism-based; conditions: time 21.0 day
Mus musculus [6] = test: Reduction in total cholesterol in DIO mouse at 30 nmol/kg, sc treated every 2 and half day once measured after 21 days; assay type: functional, organism-based; conditions: time 21.0 day
Mus musculus [7] = test: Reduction in total fat mass in DIO mouse at 30 nmol/kg, sc treated every 2 and half day once measured after 21 days; assay type: functional, organism-based; conditions: time 21.0 day
Mus musculus [8] = test: Anorexigenic effect in sc dosed ICR mouse assessed as decrease in food intake measured upto 72 hrs by acute food intake study; assay type: functional, organism-based; conditions: dose 10-100 nmol/kg
Mus musculus [9] = test: Reduction in hepatic lipid content in DIO mouse at 30 nmol/kg, sc treated every 2 and half day once measured after 21 days by H and E staining based assay; assay type: functional, organism-based; conditions: time 21.0 day
[10] = target: T1, Glucagon-like peptide 1 receptor; test: Agonist activity at human GLP-1 receptor expressed in HEK293 cells assessed as cAMP level by measuring relative percent (GLP-1 EC50/compound EC50) measured after 60 mins by HTRF based assay relative to GLP-1; assay type: functional, cell-based; conditions: filed as agonist
[11] = target: T2, Gastric inhibitory polypeptide receptor (Homo sapiens) (UniProt P48546); test: Agonist activity at human GIPR receptor expressed in HEK293 cells assessed as cAMP level by measuring relative percent (GIP EC50/compound EC50) measured after 60 mins by HTRF based assay relative to GIP; assay type: functional, cell-based
T2 sequence (whole entry): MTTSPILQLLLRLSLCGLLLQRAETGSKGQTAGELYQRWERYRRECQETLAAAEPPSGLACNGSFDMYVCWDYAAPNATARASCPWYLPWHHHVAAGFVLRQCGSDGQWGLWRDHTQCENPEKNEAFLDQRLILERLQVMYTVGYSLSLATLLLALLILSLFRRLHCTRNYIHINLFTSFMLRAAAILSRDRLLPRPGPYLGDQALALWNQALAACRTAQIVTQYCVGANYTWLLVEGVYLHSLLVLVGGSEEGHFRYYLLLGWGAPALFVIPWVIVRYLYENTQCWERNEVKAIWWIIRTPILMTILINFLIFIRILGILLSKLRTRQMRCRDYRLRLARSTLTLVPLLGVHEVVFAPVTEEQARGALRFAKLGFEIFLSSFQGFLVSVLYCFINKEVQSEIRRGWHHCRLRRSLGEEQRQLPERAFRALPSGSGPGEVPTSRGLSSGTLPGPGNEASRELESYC

Mus musculus [12] = test: Antihyperglycemic effect in DIO mouse assessed as prolonged antihyperglycemic duration by measuring blood glucose at 100 nmol/kg, sc; assay type: functional, organism-based
[13] = target: Glucagon receptor (Mus musculus) (UniProt Q61606); test: Agonist activity at mouse GCGR receptor expressed in HEK293 cells assessed as cAMP level measured after 60 mins by HTRF based assay; assay type: functional, cell-based; conditions: filed as agonist
Glucagon receptor [14] = target: T3, Glucagon receptor (Homo sapiens, UniProt P47871); test: Agonist activity at human GCGR expressed in HEK293 cells assessed as cAMP level measured after 60 mins by HTRF based assay; assay type: functional, cell-based
Mus musculus [15] = test: Reduction in serum triglyceride in DIO mouse at 30 nmol/kg, sc treated every 2 and half day once measured after 21 days; assay type: functional, organism-based; conditions: time 21.0 day
[16] = target: Glucagon receptor (Mus musculus) (UniProt Q61606); test: Potency index, ratio of glucagon EC50 to test compound EC50 for agonist activity at mouse GCGR expressed in HEK293 cells assessed as cAMP level measured after 60 mins by HTRF based assay; assay type: functional, cell-based; conditions: filed as agonist
[17] = target: T4, Glucagon-like peptide 1 receptor (Mus musculus) (UniProt O35659); test: Agonist activity at mouse GLP-1 receptor expressed in HEK293 cells assessed as cAMP level measured after 60 mins by HTRF based assay; assay type: functional, cell-based; conditions: filed as agonist
T4 sequence (whole entry): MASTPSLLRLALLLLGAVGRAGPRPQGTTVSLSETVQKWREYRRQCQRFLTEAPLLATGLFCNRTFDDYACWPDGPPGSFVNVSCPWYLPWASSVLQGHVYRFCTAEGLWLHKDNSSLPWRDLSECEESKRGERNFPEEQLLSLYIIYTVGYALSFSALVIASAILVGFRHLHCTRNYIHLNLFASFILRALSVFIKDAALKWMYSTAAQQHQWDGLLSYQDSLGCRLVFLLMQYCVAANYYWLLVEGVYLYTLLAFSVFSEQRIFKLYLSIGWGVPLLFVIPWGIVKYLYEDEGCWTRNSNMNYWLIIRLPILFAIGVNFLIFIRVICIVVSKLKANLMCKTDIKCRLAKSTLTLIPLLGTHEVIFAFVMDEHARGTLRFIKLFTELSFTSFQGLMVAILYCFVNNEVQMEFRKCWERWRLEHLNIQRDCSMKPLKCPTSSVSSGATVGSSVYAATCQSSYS

Mus musculus [18] = test: Reduction in serum AST in DIO mouse at 30 nmol/kg, sc treated every 2 and half day once measured after 21 days; assay type: functional, organism-based; conditions: time 21.0 day
[19] = target: T4, Glucagon-like peptide 1 receptor (Mus musculus); test: Potency index, ratio of GLP-1 EC50 to test compound EC50 for agonist activity at mouse GLP-1 receptor expressed in HEK293 cells assessed as cAMP level measured after 60 mins by HTRF based assay; assay type: functional, cell-based; conditions: filed as agonist
Glucagon receptor [20] = target: T3, Glucagon receptor; test: Agonist activity at human GCGR expressed in HEK293 cells assessed as cAMP level by measuring relative percent (glucagon EC50/compound EC50) measured after 60 mins by HTRF based assay relative to glucagon; assay type: functional, cell-based; conditions: filed as agonist
Mus musculus [21] = test: Hypoglycemic effect in ICR mouse treated with 3 g/kg glucose assessed as reduction in blood glucose level at 10 nmol/kg, sc measured upto 120 mins by acute glucose lowering test; assay type: functional, organism-based
Mus musculus [22] = test: Reduction in feed intake in DIO mouse at 30 nmol/kg, sc treated twice a day measured after 21 days; assay type: functional, organism-based; conditions: time 21.0 day
Mus musculus [23] = test: Reduction in body weight in DIO mouse at 30 nmol/kg, sc treated every 2 and half day once measured after 21 days; assay type: functional; set-up: scale not given: the % may be the effect or the level left; conditions: time 21 day
Mus musculus [24] = test: Anorexigenic effect in ICR mouse assessed as decrease in food intake at 10 nmol/kg, sc measured upto 72 hrs by acute food intake study; assay type: functional, organism-based
[25] = target: T5, Gastric inhibitory polypeptide receptor (Homo sapiens, UniProt P48546); test: Agonist activity at human GIPR receptor expressed in HEK293 cells assessed as cAMP level measured after 60 mins by HTRF based assay; assay type: functional, cell-based
T5 sequence (P48546 whole entry): T2 sequence (whole entry)

Mus musculus [26] = test: Hypoglycemic effect in ICR mouse treated with 3 g/kg glucose assessed as reduction in blood glucose level at 30 nmol/kg, sc measured upto 120 mins pretreated with GLP-1R and GIPR antagonist by OGTT; assay type: functional, organism-based
Mus musculus [27] = test: Reduction in serum ALT in DIO mouse at 30 nmol/kg, sc treated every 2 and half day once measured after 21 days; assay type: functional, organism-based; conditions: time 21.0 day
Mus musculus [28] = test: Antihyperglycemic effect in DIO mouse assessed as antihyperglycemic duration by measuring blood glucose at 30 nmol/kg, sc measured after 48 hrs by hypoglycemic duration assay; assay type: functional, organism-based
Mus musculus [29] = test: Reduction in serum ALT level in DIO mouse at 30 nmol/kg, sc treated twice a day measured after 21 days; assay type: functional, organism-based; conditions: time 21.0 day
Mus musculus [30] = test: Reduction in serum AST level in DIO mouse at 30 nmol/kg, sc treated twice a day measured after 21 days; assay type: functional, organism-based; conditions: time 21.0 day
Mus musculus [31] = test: Reduction in body weight in DIO mouse at 30 nmol/kg, sc treated twice a day measured after 21 days; assay type: functional; set-up: scale not given: the % may be the effect or the level left; conditions: time 21 day

T3 sequence (P47871 whole entry): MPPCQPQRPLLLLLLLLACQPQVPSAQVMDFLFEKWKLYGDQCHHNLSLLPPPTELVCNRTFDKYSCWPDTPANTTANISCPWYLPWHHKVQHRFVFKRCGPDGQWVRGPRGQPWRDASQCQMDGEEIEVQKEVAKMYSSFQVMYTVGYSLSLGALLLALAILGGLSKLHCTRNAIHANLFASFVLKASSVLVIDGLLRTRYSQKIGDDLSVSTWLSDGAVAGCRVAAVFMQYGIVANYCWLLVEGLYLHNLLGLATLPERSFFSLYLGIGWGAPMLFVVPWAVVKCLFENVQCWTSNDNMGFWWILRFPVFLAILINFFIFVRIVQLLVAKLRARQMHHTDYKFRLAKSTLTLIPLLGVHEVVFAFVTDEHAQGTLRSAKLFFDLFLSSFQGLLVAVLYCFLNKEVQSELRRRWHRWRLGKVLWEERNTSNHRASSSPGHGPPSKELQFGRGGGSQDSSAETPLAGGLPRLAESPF
T1 sequence (P43220 whole entry): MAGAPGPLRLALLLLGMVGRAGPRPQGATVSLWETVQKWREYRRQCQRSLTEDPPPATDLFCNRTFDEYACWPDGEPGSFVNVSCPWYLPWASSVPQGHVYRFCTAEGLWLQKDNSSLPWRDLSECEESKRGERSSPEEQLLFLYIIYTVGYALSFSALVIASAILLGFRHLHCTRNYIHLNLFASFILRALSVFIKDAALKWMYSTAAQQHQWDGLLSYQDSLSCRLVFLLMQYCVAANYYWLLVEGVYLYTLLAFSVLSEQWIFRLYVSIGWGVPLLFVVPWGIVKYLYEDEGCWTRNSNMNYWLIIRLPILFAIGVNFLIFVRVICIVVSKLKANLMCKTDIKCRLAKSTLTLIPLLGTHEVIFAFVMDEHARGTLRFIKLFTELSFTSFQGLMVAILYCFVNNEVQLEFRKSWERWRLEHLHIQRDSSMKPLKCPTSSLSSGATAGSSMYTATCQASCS
Glucagon receptor (Mus musculus), sequence (Q61606 whole entry): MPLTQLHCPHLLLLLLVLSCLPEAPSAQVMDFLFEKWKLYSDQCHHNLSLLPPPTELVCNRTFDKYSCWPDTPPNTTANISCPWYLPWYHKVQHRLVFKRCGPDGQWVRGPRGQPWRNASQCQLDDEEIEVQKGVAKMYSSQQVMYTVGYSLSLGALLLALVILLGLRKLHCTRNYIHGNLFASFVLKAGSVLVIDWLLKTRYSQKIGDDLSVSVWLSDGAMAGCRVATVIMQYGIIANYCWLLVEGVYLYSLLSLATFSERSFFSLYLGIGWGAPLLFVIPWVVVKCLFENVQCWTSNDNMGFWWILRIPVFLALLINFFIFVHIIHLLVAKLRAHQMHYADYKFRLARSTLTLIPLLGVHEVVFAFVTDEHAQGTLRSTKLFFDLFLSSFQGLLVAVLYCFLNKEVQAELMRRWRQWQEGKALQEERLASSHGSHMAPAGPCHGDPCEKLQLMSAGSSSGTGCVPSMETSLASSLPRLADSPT

CC[C@H](C)[C@H](NC(=O)[C@H](CCCCNC(=O)COCCOCCNC(=O)COCCOCCNC(=O)CC[C@H](NC(=O)CCCCCCCCCCCCCCCCC(=O)O)C(=O)O)NC(=O)[C@H](CCC(=O)O)NC(=O)[C@H](CC(C)C)NC(=O)[C@H](C)NC(=O)[C@H](CCCNC(=N)N)NC(=O)[C@H](CO)NC(=O)[C@H](CCSC)NC(=O)[C@H](CC(=O)O)NC(=O)[C@H](CO)NC(=O)[C@@H](NC(=O)[C@H](Cc1ccccc1)NC(=O)[C@@H](NC(=O)CNC(=O)[C@H](CCC(N)=O)NC(=O)C(C)(C)NC(=O)[C@@H](N)Cc1c[nH]cn1)[C@@H](C)O)[C@@H](C)O)C(=O)N[C@@H](C)C(=O)N[C@@H](C)C(=O)N[C@@H](CCCNC(=N)N)C(=O)N[C@@H](CC(C)C)C(=O)N[C@@H](Cc1ccccc1)C(=O)N[C@H](C(=O)N[C@@H](CC(=O)O)C(=O)N[C@@H](Cc1c[nH]c2ccccc12)C(=O)N[C@@H](CC(C)C)C(=O)N[C@H](C(=O)N[C@@H](CCC(=O)O)C(=O)NCC(=O)NCC(=O)N1CCC[C@H]1C(=O)N[C@@H](CO)C(=O)N[C@@H](CO)C(=O)NCC(=O)N[C@@H](C)C(=O)N1CCC[C@H]1C(=O)N1CCC[C@H]1C(=O)N1CCC[C@H]1C(=O)N[C@@H](CO)C(N)=O)[C@@H](C)CC)C(C)C (H-H[Aib]QGTFTSDMSRALEK([AEEA-AEEA-γGlu-C18 diacid])IAARLFVDWLIEGGPSSGAPPPS-NH2)
Activity (Mus musculus [1]): Active
EC50 [2]: 0.012 nM
Activity (Mus musculus [3]): Active
Activity (Mus musculus [4]): Active
Activity (Mus musculus [5]): Active
Activity (Mus musculus [6]): Active
Activity (Mus musculus [7]): Active
Activity (Mus musculus [8]): Dose-Dependent Effect
Activity (Mus musculus [9]): Active
Activity [10]: 442%
Activity [11]: 4%
Activity (Mus musculus [12]): Active
Activity [13]: Active
EC50 (Glucagon receptor [14]): 0.13 nM
Activity (Mus musculus [15]): Active
Ratio EC50 [16]: 1
Activity [17]: Active
Activity (Mus musculus [18]): Active
Ratio EC50 [19]: 1
Activity (Glucagon receptor [20]): 71%
Activity (Mus musculus [21]): Active
Activity (Mus musculus [22]): Active
Activity (Mus musculus [23]): 40.7%
Activity (Mus musculus [24]): Active
EC50 [25]: 0.6 nM
Activity (Mus musculus [26]): inactive
Activity (Mus musculus [27]): Active
Activity (Mus musculus [28]): Active

CCCCCCCCCCCCCCCC(=O)N[C@@H](CCC(=O)NCCCC[C@H](NC(=O)[C@H](CC(=O)O)NC(=O)[C@H](CO)NC(=O)[C@@H](NC(=O)[C@H](Cc1ccccc1)NC(=O)[C@@H](NC(=O)CNC(=O)[C@H](CCC(N)=O)NC(=O)[C@H](CO)NC(=O)[C@@H](N)Cc1c[nH]cn1)[C@@H](C)O)[C@@H](C)O)C(=O)N[C@@H](CO)C(=O)N[C@@H](CCC(=O)O)C(=O)N[C@@H](Cc1ccc(O)cc1)C(=O)N[C@@H](CC(C)C)C(=O)N[C@@H](CC(=O)O)C(=O)N[C@@H](CO)C(=O)N[C@@H](CCC(=O)O)C(=O)N[C@@H](CCCNC(=N)N)C(=O)N[C@@H](C)C(=O)N[C@@H](CCCNC(=N)N)C(=O)N[C@@H](CC(=O)O)C(=O)N[C@@H](Cc1ccccc1)C(=O)N[C@H](C(=O)N[C@@H](C)C(=O)N[C@@H](Cc1c[nH]c2ccccc12)C(=O)N[C@@H](CC(C)C)C(=O)N[C@@H](CCC(=O)O)C(=O)N[C@@H](C)C(=O)NCC(=O)NCC(=O)O)C(C)C)C(=O)O [COTADUTIDE]
Activity (Mus musculus [1]): Active
Activity (Mus musculus [29]): Active
EC50 [2]: 0.075 nM
Activity (Mus musculus [4]): Active
Activity (Mus musculus [30]): Active
Activity (Mus musculus [31]): ~24.6%
EC50 (Glucagon receptor [14]): 0.17 nM
Activity (Mus musculus [22]): Active
